Source: patent US20240360076A1, “NONIONIC SURFACTANTS” (priority 2023, published 2024)

Key:
[1] = test system: SARS-COV-2 target template; experiment: SARS-COV-2 LAMP assay; type: biochemical; settings: 0.0075% in LAMP MasterMix
[2] = type: physicochemical; settings: buffer, 1 month, 0.1 %, pH 8.8
Description: Solutions of isothermal amplification buffers at pH 8.8 containing 0.1% of DS2, DS13, or DS17 were kept at 25° C. and analyzed over time using HPLC. It was observed that 95%-100% of the surfactant remained after one month (FIG. 5A) and therefore DSs are stable in pH 8.8 amplification buffer when stored in ambient conditions.

[3] = CMC determination by dynamic light scattering; type: physicochemical
Description: Average micelle radius data was collected on a DynaPro NanoStar Dynamic Light Scattering Detector. To each disposable cuvette was added 5 μL of the specified solution of DS1, DS2, or DS13 in water (T=25° C., n=10).

[4] = test system: FluB target RNA sequence; experiment: FluB LAMP assay, time to positive; type: biochemical; settings: for compatibility with FluB assay: presence of nasal matrix
Description: As the surfactant concentration approaches its critical micelle concentration (CMC), detrimental impact is observed on LAMP performance.
It was determined that DS2 is compatible with FluB assay in the presence of nasal matrix at 0.015%.

[5] = test system: Ex2B target template; experiment: Ex2B LAMP assay; settings: 0.0075% in LAMP MasterMix
Description: DS2 was added at 0%, 0.015%, 0.0575%, and 0.1% to the LAMP MasterMix, or LAMP buffer, containing target-specific primers, dNTPs, DNA polymerase, reverse transcriptase, intercalating fluorescent dye, and the target RNA sequence. This reaction mixture was incubated at 62° C. for 50 minutes and the increase in fluorescence was assessed to determine the time to positivity.
DS2, DS13, and DS17 were added at 0.0075% to the LAMP MasterMix using the above procedure with Ex2B target template (FIG. 4B).

[6] = test system: MS2 template; experiment: Lyophilized MS2 LAMP chemistry, time to positive; type: biochemical; settings: 0%, 0.03% or 0.06%; template 0.12 cp/μL and 0.06 cp/μL
[7] = 2 months

SMILES | compatibility with SARS-COV-2 assay [1] | surfactant remaining [2] | critical micelle concentration (CMC) [3] | compatibility with FluB assay ([4]; 0.0075% in LAMP MasterMix) | compatibility with FluB assay ([4]; 0.015% in LAMP buffer) | impact on LAMP performance at the CMC ([4]; 0.1% DS2, FluB LAMP, nasal matrix, 62° C. for 50 minutes) | impact on assay specificity below the CMC ([4]; concentrations below the CMC) | compatibility with Ex2B assay [5] | impact on time to positive (Tp, min) [6] | remaining [7]
CCCCCCCCCCC(=O)N(CCOCCOCCOC)CCOCCOCCOC [DS2] | compatible | 95%-100 | 0.1% | compatible | compatible | delay in the contrived positive amplification | no detrimental impact | compatible | – | –
CCCCCCCCCCC(=O)N(CCOCCOCCOCCOC)CCOCCOCCOCCOC [DS13] | compatible | 95%-100 | – | compatible | – | – | – | compatible | no detrimental impact | 97.1±1.5%
CCCCCCCCCCC(=O)NCCOCCOCCOCCOCCOCCOC [DS17] | compatible | 95%-100 | – | compatible | – | – | – | compatible | – | –
